Assay results published in patent US8748459B2, “Pyridinoylpiperidines as 5-HT1F agonists” (Eli Lilly and Company, priority 2002, dated 2014).

Tested on: rabbit saphenous vein
Experiment: rabbit saphenous vein contraction
Description: Representative compounds of the present invention were tested in a rabbit saphenous vein contraction assay to measure their ability to mediate vasoconstriction. […] The tips of two 30-gauge stainless steel hypodermic needles bent into an L-shape were slipped into the polyetylene tubing. Vessels were gently pushed from the cannula onto the needles. The needles were then separated so that the lower one was attached with thread to a stationary glass rod and the upper one was tied with thread to the transducer. […] An initial optimum resting force of 1 gm was applied to the saphenous vein. Isometric contractions were recorded as changes in grams of force on a Beckman Dynograph with Statham UC-3 transducers and microscale accessory attachments. Tissues were allowed to equilibrate 1 to 2 hours before exposure to drugs. Cumulative agonist concentration-response curves were generated in tissues and no tissue was used to generate more than two agonist concentration-response curves. […] This vasoconstriction assay measures two important parameters, saphenous vein contraction (EC50) and maximal contraction as a % maximal KCl response (%max KCl).

In the case of `CNS(=O)(=O)Cc1ccc2[nH]cc(CCN(C)C)c2c1` [sumatriptan], the “corrected vasoconstriction EC50” value (EC50 divided by %max KCl) is reported as 10.3 nM and the EC50 (Oryctolagus cuniculus) is reported as 660 nM.
